Assay results taken from PubChem BioAssay AID1963871 (Molecular Pharmacology Branch, DTP, NCI, 2024).

System: KRAS-mutant PDC multicell tumor spheroid viability
Experiment: Anticancer human tumor 521955-158-R2-J5-PDC patient-derived pancreatic carcinoma cell line growth inhibition [KRAS2]
Conditions: for IC50: curve of first compound; for viability, T/C: stronger effect = lower value
Method in brief: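 Combination screen of spheroid viability in tumor-cell co-cultures with endothelial (HUVEC) and mesenchymal stem cell stroma. Each agent was tested in half-log dilutions, topping at clinical Cmax or at 10 microM without a known Cmax.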

[1] = second compound 0.1 µM, first compound 0.000316 µM
[2] = second compound 0.1 µM, first compound 0.001 µM
[3] = second compound 0.1 µM, first compound 0.00316 µM
[4] = second compound 0.1 µM, first compound 0.01 µM
[5] = second compound 0.1 µM, first compound 0.0316 µM
[6] = second compound 0.316 µM, first compound 0.000316 µM
[7] = second compound 0.316 µM, first compound 0.001 µM
[8] = second compound 0.316 µM, first compound 0.00316 µM
[9] = second compound 0.316 µM, first compound 0.01 µM
[10] = second compound 0.316 µM, first compound 0.0316 µM
[11] = second compound 1 µM, first compound 0.000316 µM
[12] = second compound 1 µM, first compound 0.001 µM
[13] = second compound 1 µM, first compound 0.00316 µM
[14] = second compound 1 µM, first compound 0.01 µM
[15] = second compound 1 µM, first compound 0.0316 µM
[16] = second compound 3.16 µM, first compound 0.000316 µM
[17] = second compound 3.16 µM, first compound 0.001 µM
[18] = second compound 3.16 µM, first compound 0.00316 µM
[19] = second compound 3.16 µM, first compound 0.01 µM
[20] = second compound 3.16 µM, first compound 0.0316 µM
[21] = second compound 10 µM, first compound 0.000316 µM
[22] = second compound 10 µM, first compound 0.001 µM
[23] = second compound 10 µM, first compound 0.00316 µM
[24] = second compound 10 µM, first compound 0.01 µM
[25] = second compound 10 µM, first compound 0.0316 µM
[26] = second compound 0.1 µM, first compound 0.1 µM
[27] = second compound 0.316 µM, first compound 0.1 µM
[28] = second compound 1 µM, first compound 0.1 µM
[29] = second compound 3.16 µM, first compound 0.1 µM
[30] = second compound 10 µM, first compound 0.1 µM
[31] = second compound 0.1 µM, first compound 0.316 µM
[32] = second compound 0.1 µM, first compound 1 µM
[33] = second compound 0.1 µM, first compound 3.16 µM
[34] = second compound 0.1 µM, first compound 10 µM
[35] = second compound 0.316 µM, first compound 0.316 µM
[36] = second compound 0.316 µM, first compound 1 µM
[37] = second compound 0.316 µM, first compound 3.16 µM
[38] = second compound 0.316 µM, first compound 10 µM
[39] = second compound 1 µM, first compound 0.316 µM
[40] = second compound 1 µM, first compound 1 µM
[41] = second compound 1 µM, first compound 3.16 µM
[42] = second compound 1 µM, first compound 10 µM
[43] = second compound 3.16 µM, first compound 0.316 µM
[44] = second compound 3.16 µM, first compound 1 µM
[45] = second compound 3.16 µM, first compound 3.16 µM
[46] = second compound 3.16 µM, first compound 10 µM
[47] = second compound 10 µM, first compound 0.316 µM
[48] = second compound 10 µM, first compound 1 µM
[49] = second compound 10 µM, first compound 3.16 µM
[50] = second compound 10 µM, first compound 10 µM
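Further: viability read after seven days of drug exposure.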

CC(=O)Nc1cccc(-n2c(=O)n(C3CC3)c(=O)c3c(Nc4ccc(I)cc4F)n(C)c(=O)c(C)c32)c1 + CNCc1ccccc1-c1csc(C(C)Nc2nc(C)nc3cc(OC)c(OC)cc23)c1
IC50 (second compound 0.1 µM): 0.252 nM
IC50 (second compound 0.316 µM): 0.285 nM
IC50 (second compound 1 µM): 0.312 nM
IC50 (second compound 3.16 µM): < 0.1 nM
IC50 (second compound 10 µM): < 0.1 nM
viability, T/C (second compound 0.1 µM, first compound 0.0001 µM): 70.5%
viability, T/C [1]: 44.9%
viability, T/C [2]: 28.5%
viability, T/C [3]: 27.1%
viability, T/C [4]: 20.9%
viability, T/C [5]: 15.9%
viability, T/C (second compound 0.316 µM, first compound 0.0001 µM): 69%
viability, T/C [6]: 43.6%
viability, T/C [7]: 38%
viability, T/C [8]: 26.3%
viability, T/C [9]: 22.2%
viability, T/C [10]: 14.1%
viability, T/C (second compound 1 µM, first compound 0.0001 µM): 81.5%
viability, T/C [11]: 39.6%
viability, T/C [12]: 35.7%
viability, T/C [13]: 24.5%
viability, T/C [14]: 7.75%
viability, T/C [15]: 2.12%
viability, T/C (second compound 3.16 µM, first compound 0.0001 µM): 1.11%
viability, T/C [16]: 0.2%
viability, T/C [17]: 1.26%
viability, T/C [18]: 0.11%
viability, T/C [19]: 0.95%
viability, T/C [20]: 0.19%
viability, T/C (second compound 10 µM, first compound 0.0001 µM): 0.21%
viability, T/C [21]: 0.24%
viability, T/C [22]: 0.18%
viability, T/C [23]: 0.4%
viability, T/C [24]: 2.28%
viability, T/C [25]: 0.26%

CN(C)C/C=C/C(=O)Nc1cc2c(Nc3ccc(F)c(Cl)c3)ncnc2cc1O[C@H]1CCOC1 + CNCc1ccccc1-c1csc(C(C)Nc2nc(C)nc3cc(OC)c(OC)cc23)c1
IC50 (second compound 0.1 µM): > 100 nM
IC50 (second compound 0.316 µM): > 100 nM
IC50 (second compound 1 µM): > 100 nM
IC50 (second compound 3.16 µM): 2.23 nM
IC50 (second compound 10 µM): < 0.316 nM
viability, T/C [1]: 107%
viability, T/C [2]: 104%
viability, T/C [3]: 93.3%
viability, T/C [4]: 91%
viability, T/C [5]: 88.9%
viability, T/C [26]: 77.3%
viability, T/C [6]: 110%
viability, T/C [7]: 93.5%
viability, T/C [8]: 81.1%
viability, T/C [9]: 92.6%
viability, T/C [10]: 98.5%
viability, T/C [27]: 64.4%
viability, T/C [11]: 113%
viability, T/C [12]: 120%
viability, T/C [13]: 100%
viability, T/C [14]: 100%
viability, T/C [15]: 97%
viability, T/C [28]: 97.7%
viability, T/C [16]: 114%
viability, T/C [17]: 116%
viability, T/C [18]: 0.23%
viability, T/C [19]: 0.26%
viability, T/C [20]: 85.9%
viability, T/C [29]: 1%
viability, T/C [21]: 0.27%
viability, T/C [22]: 0.27%
viability, T/C [23]: 0.18%
viability, T/C [24]: 0.16%
viability, T/C [25]: 0.23%
viability, T/C [30]: 0.24%

COC(=O)c1ccc2c(C(=Nc3ccc(N(C)C(=O)CN4CCN(C)CC4)cc3)c3ccccc3)c(O)[nH]c2c1 + CNCc1ccccc1-c1csc(C(C)Nc2nc(C)nc3cc(OC)c(OC)cc23)c1
IC50 (second compound 0.1 µM): 2260 nM
IC50 (second compound 0.316 µM): 1800 nM
IC50 (second compound 1 µM): 1960 nM
IC50 (second compound 3.16 µM): < 31.6 nM
IC50 (second compound 10 µM): < 31.6 nM
viability, T/C [5]: 87.3%
viability, T/C [26]: 111%
viability, T/C [31]: 103%
viability, T/C [32]: 123%
viability, T/C [33]: 26.9%
viability, T/C [34]: 1.42%
viability, T/C [10]: 90%
viability, T/C [27]: 101%
viability, T/C [35]: 100%
viability, T/C [36]: 107%
viability, T/C [37]: 2.22%
viability, T/C [38]: 0.15%
viability, T/C [15]: 97.1%
viability, T/C [28]: 103%
viability, T/C [39]: 115%
viability, T/C [40]: 95.3%
viability, T/C [41]: 17.5%
viability, T/C [42]: 0.14%
viability, T/C [20]: 0.52%
viability, T/C [29]: 0.17%
viability, T/C [43]: 0.16%
viability, T/C [44]: 0.15%
viability, T/C [45]: 0.07%
viability, T/C [46]: 0.59%
viability, T/C [25]: 0.14%
viability, T/C [30]: 0.13%
viability, T/C [47]: 0.13%
viability, T/C [48]: 0.13%
viability, T/C [49]: 0.12%
viability, T/C [50]: 0.19%

COc1cc(Nc2ncc3c(n2)-c2ccc(Cl)cc2C(c2c(F)cccc2OC)=NC3)ccc1C(=O)O + CNCc1ccccc1-c1csc(C(C)Nc2nc(C)nc3cc(OC)c(OC)cc23)c1
IC50 (second compound 0.1 µM): 75.6 nM
IC50 (second compound 0.316 µM): < 31.6 nM
IC50 (second compound 1 µM): < 31.6 nM
IC50 (second compound 3.16 µM): < 31.6 nM
IC50 (second compound 10 µM): < 31.6 nM
viability, T/C [5]: 57.5%
viability, T/C [26]: 48.2%
viability, T/C [31]: 43.6%
viability, T/C [32]: 48.2%
viability, T/C [33]: 49.2%
viability, T/C [34]: 43.6%
viability, T/C [10]: 48.4%
viability, T/C [27]: 45.4%
viability, T/C [35]: 51.4%
viability, T/C [36]: 46%
viability, T/C [37]: 47.6%
viability, T/C [38]: 39.8%
viability, T/C [15]: 39.7%
viability, T/C [28]: 31.4%
viability, T/C [39]: 34.5%
viability, T/C [40]: 28.4%
viability, T/C [41]: 35.2%
viability, T/C [42]: 40.9%
viability, T/C [20]: 0.73%
viability, T/C [29]: 0.13%
viability, T/C [43]: 1.25%
viability, T/C [44]: 1.11%
viability, T/C [45]: 0.12%
viability, T/C [46]: 1.59%
viability, T/C [25]: 0.28%
viability, T/C [30]: 0.29%
viability, T/C [47]: 0.26%
viability, T/C [48]: 0.51%
viability, T/C [49]: 1.28%
viability, T/C [50]: 0.37%

COc1cc2nccc(Oc3ccc(NC(=O)C4(C(=O)Nc5ccc(F)cc5)CC4)cc3)c2cc1OC + CNCc1ccccc1-c1csc(C(C)Nc2nc(C)nc3cc(OC)c(OC)cc23)c1
IC50 (second compound 0.1 µM): 6770 nM
IC50 (second compound 0.316 µM): 6200 nM
IC50 (second compound 1 µM): 3700 nM
IC50 (second compound 3.16 µM): < 31.6 nM
IC50 (second compound 10 µM): < 31.6 nM
viability, T/C [5]: 92.7%
viability, T/C [26]: 94.2%
viability, T/C [31]: 94.5%
viability, T/C [32]: 92.2%
viability, T/C [33]: 70.7%
viability, T/C [34]: 39.4%
viability, T/C [10]: 94.6%
viability, T/C [27]: 101%
viability, T/C [35]: 95.9%
viability, T/C [36]: 115%
viability, T/C [37]: 75.7%
viability, T/C [38]: 31.9%
viability, T/C [15]: 98.8%
viability, T/C [28]: 99.9%
viability, T/C [39]: 114%
viability, T/C [40]: 99.6%
viability, T/C [41]: 57.7%
viability, T/C [42]: 2.02%
viability, T/C [20]: 0.62%
viability, T/C [29]: 0.34%
viability, T/C [43]: 0.41%
viability, T/C [44]: 0.52%
viability, T/C [45]: 0.39%
viability, T/C [46]: 0.4%
viability, T/C [25]: 0.2%
viability, T/C [30]: 0.12%
viability, T/C [47]: 0.63%
viability, T/C [48]: 0.12%
viability, T/C [49]: 0.23%
viability, T/C [50]: 0.19%

O=C(c1cc(Cc2n[nH]c(=O)c3ccccc23)ccc1F)N1CCN(C(=O)C2CC2)CC1 + CNCc1ccccc1-c1csc(C(C)Nc2nc(C)nc3cc(OC)c(OC)cc23)c1
IC50 (second compound 0.1 µM): > 10000 nM
IC50 (second compound 0.316 µM): > 10000 nM
IC50 (second compound 1 µM): > 10000 nM
IC50 (second compound 3.16 µM): < 31.6 nM
IC50 (second compound 10 µM): < 31.6 nM
viability, T/C [5]: 93.9%
viability, T/C [26]: 106%
viability, T/C [31]: 91%
viability, T/C [32]: 88.3%
viability, T/C [33]: 72.7%
viability, T/C [34]: 55.7%
viability, T/C [10]: 86.7%
viability, T/C [27]: 100%
viability, T/C [35]: 94.5%
viability, T/C [36]: 88.8%
viability, T/C [37]: 72.1%
viability, T/C [38]: 54.3%
viability, T/C [15]: 92.3%
viability, T/C [28]: 98.1%
viability, T/C [39]: 99.6%
viability, T/C [40]: 94.5%
viability, T/C [41]: 70.7%
viability, T/C [42]: 51.9%
viability, T/C [20]: 0.34%
viability, T/C [29]: 0.17%
viability, T/C [43]: 0.17%
viability, T/C [44]: 0.65%
viability, T/C [45]: 0.18%
viability, T/C [46]: 0.2%
viability, T/C [25]: 0.16%
viability, T/C [30]: 0.14%
viability, T/C [47]: 0.16%
viability, T/C [48]: 0.16%
viability, T/C [49]: 0.18%
viability, T/C [50]: 0.23%
